The source of these data is ChEMBL document CHEMBL5715954, “Silencing c-Myc translation as a therapeutic strategy through targeting PI3Kδ and CK1ε in hematological malignancies” (Blood, 2017).

Set-up in all cases: scale not given: the % may be the effect or the level left
Experiment [1] has as its target T1, Serine/threonine-protein kinase TAO1 (Homo sapiens) (UniProt Q7L7X3).
T1 sequence (whole entry): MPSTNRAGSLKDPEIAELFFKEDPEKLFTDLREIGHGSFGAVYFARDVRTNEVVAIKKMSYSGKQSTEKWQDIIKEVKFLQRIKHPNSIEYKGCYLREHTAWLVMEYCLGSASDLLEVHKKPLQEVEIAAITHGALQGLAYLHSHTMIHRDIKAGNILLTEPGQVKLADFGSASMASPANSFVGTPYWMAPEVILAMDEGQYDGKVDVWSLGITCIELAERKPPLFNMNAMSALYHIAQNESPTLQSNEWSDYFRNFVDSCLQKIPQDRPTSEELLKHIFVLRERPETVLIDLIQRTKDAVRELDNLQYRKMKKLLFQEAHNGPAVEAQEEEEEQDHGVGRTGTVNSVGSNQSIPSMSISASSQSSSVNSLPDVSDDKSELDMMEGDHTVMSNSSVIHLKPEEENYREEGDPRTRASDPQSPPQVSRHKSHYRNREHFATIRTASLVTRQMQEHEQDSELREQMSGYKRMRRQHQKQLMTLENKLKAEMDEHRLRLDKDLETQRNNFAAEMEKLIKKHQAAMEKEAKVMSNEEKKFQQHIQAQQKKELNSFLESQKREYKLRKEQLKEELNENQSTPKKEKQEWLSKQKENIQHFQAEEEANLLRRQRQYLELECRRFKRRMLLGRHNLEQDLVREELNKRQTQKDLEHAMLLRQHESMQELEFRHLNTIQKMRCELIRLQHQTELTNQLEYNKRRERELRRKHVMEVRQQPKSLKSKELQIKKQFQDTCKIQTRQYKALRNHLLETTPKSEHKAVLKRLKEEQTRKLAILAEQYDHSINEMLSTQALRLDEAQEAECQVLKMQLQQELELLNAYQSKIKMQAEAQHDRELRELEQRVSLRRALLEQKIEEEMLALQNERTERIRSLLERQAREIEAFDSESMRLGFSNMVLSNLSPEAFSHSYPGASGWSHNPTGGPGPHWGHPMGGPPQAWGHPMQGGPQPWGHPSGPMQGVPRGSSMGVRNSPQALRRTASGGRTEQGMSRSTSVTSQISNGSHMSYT
Put plainly: Inhibition of human TAOK1 assessed as enzyme activity at 1 uM using myelin basic protein as substrate preincubated for 20 mins followed by [gamma-33P]-ATP addition and measured after 120 mins by radiometric Hot-SpotSM Kinase assay relative to control.

Experiment [2] has as its target Protein kinase C gamma type (Homo sapiens) (UniProt P05129). Put plainly: Inhibition of human PKCg assessed as enzyme activity at 1 uM using ERMRPRKRQGSVRRRV as substrate preincubated for 20 mins followed by [gamma-33P]-ATP addition and measured after 120 mins by radiometric Hot-SpotSM Kinase assay relative to control.
Experiment [3] concerns the target Focal adhesion kinase 1 (Homo sapiens) (UniProt Q05397). Put plainly: Inhibition of human FAK assessed as enzyme activity at 1 uM using poly[Glu:Tyr] (4:1) as substrate preincubated for 20 mins followed by [gamma-33P]-ATP addition and measured after 120 mins by radiometric Hot-SpotSM Kinase assay relative to control.
In experiment [4] the target is T2, Lymphokine-activated killer T-cell-originated protein kinase (Homo sapiens) (UniProt Q96KB5).
T2 sequence (whole entry): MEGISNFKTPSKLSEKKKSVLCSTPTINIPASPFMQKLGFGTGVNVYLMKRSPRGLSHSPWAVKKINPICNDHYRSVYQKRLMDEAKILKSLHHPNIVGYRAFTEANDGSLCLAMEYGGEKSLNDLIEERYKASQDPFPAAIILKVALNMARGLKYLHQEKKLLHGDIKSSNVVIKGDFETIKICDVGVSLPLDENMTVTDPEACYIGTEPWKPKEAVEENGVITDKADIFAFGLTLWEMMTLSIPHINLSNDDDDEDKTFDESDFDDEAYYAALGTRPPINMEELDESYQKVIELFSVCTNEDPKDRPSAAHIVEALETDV
Put plainly: Inhibition of human PBK assessed as enzyme activity at 1 uM using myelin basic protein as substrate preincubated for 20 mins followed by [gamma-33P]-ATP addition and measured after 120 mins by radiometric Hot-SpotSM Kinase assay relative to control.

The target in experiment [5] is CDK1/Cyclin E (Homo sapiens) (UniProt P06493+P24864). As to the kind of experiment: Inhibition of human CDK1/cyclin E assessed as enzyme activity at 1 uM using RB Protein as substrate preincubated for 20 mins followed by [gamma-33P]-ATP addition and measured after 120 mins by radiometric Hot-SpotSM Kinase assay relative to control. Format: protein-complex assay.
In experiment [6] the target is CDK9/cyclin T1 (Homo sapiens) (UniProt O60563+P50750). Put plainly: Inhibition of human CDK9/cyclin T1 assessed as enzyme activity at 1 uM using KTFCGTPEYLAPEVRREPRILSEEEQEMFRDFDYIADWC as substrate preincubated for 20 mins followed by [gamma-33P]-ATP addition and measured after 120 mins by radiometric Hot-SpotSM Kinase assay relative to control. In kind it is protein-complex assay.

The target in experiment [7] is T3, Myotonin-protein kinase (Homo sapiens) (UniProt Q09013).
T3 sequence (whole entry): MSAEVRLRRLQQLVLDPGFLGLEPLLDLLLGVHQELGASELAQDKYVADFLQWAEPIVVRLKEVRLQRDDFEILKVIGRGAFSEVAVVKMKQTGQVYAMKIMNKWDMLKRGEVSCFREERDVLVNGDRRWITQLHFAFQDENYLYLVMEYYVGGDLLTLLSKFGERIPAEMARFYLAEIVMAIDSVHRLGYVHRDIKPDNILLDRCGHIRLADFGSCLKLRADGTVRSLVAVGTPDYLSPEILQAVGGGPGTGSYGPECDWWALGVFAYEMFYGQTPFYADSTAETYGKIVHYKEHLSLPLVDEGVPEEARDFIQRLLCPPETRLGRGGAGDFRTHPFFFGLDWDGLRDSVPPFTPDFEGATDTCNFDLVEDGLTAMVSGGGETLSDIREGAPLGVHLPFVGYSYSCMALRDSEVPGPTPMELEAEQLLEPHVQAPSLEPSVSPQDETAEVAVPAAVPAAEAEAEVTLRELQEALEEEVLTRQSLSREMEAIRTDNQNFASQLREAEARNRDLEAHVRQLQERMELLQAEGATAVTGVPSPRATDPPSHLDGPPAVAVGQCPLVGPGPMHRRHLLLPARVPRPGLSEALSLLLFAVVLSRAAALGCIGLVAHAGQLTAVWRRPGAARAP
As to the kind of experiment: Inhibition of human DMPK assessed as enzyme activity at 1 uM using KKRNRRLSVA as substrate preincubated for 20 mins followed by [gamma-33P]-ATP addition and measured after 120 mins by radiometric Hot-SpotSM Kinase assay relative to control.

Sequence of CDK1/Cyclin E (Homo sapiens) (P06493 whole entry, looked up): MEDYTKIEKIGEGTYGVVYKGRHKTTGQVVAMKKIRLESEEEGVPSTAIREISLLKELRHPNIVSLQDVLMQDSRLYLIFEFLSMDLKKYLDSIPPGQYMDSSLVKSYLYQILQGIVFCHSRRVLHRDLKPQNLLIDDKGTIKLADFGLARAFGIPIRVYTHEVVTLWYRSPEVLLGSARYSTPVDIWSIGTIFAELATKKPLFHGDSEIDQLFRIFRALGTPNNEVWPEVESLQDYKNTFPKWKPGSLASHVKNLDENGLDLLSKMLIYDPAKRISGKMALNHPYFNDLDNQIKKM
Sequence of CDK1/Cyclin E (Homo sapiens) (P24864 whole entry, looked up): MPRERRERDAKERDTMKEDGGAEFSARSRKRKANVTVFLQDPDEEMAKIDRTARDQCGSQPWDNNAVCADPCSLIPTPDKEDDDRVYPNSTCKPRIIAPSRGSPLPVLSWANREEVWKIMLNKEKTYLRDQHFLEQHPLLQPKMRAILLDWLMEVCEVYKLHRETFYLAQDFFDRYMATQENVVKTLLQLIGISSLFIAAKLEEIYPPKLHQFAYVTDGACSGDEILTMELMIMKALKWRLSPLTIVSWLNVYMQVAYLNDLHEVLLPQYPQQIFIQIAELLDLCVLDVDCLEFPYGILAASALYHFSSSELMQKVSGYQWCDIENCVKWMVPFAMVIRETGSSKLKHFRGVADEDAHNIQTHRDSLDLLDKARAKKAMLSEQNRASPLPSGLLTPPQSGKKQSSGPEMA
Sequence of Focal adhesion kinase 1 (Homo sapiens) (Q05397 2-1052 limits assumed): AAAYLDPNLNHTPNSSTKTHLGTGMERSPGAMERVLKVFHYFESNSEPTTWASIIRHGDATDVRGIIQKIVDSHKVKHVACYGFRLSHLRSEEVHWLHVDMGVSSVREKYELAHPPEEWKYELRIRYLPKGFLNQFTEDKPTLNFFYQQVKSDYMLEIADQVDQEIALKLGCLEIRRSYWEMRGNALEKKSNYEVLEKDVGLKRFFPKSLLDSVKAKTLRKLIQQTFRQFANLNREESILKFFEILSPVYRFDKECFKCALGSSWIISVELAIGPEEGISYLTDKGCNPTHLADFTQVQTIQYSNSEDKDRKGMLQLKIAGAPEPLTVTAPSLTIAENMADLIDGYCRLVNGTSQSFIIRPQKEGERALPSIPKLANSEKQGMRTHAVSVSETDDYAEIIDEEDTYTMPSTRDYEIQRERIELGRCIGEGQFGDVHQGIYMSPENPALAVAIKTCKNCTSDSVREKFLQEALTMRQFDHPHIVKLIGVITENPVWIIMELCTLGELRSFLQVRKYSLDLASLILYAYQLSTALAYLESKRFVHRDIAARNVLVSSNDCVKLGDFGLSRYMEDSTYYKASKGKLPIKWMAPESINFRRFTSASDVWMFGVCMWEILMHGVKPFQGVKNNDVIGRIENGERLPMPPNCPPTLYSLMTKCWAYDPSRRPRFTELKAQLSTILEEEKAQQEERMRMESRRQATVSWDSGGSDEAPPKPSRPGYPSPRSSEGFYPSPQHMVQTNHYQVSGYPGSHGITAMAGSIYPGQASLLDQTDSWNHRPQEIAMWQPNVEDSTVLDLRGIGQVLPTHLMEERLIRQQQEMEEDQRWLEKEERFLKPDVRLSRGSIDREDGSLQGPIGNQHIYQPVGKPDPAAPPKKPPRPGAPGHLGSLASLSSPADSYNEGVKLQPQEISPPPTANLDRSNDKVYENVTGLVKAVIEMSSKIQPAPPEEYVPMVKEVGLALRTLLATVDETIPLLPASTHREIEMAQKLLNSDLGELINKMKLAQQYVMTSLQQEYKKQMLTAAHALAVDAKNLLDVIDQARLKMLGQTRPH

Take `C[C@H](Nc1ncnc2nc[nH]c12)c1cc2cccc(Cl)c2c(=O)n1-c1ccccc1`: the Activity in experiment [1] came to 97.9%; in experiment [2], 97.3%; in experiment [3] it was 98.4%; in experiment [4] it was 102%; in experiment [5] it was 91.5%; in experiment [6], 96.2%. For the same molecule, the Activity in experiment [7] was found to be 106%.

With `CC[C@H](Nc1ncnc2[nH]cnc12)c1nc2cccc(F)c2c(=O)n1-c1ccccc1`, the Activity came to 101% in experiment [1]; 96% in experiment [2]; 103% in experiment [3]; 105% in experiment [4]; 88.5% in experiment [5]; 89.5% in experiment [6]. Also, in experiment [7], the Activity came out at 104%.

Turning to `CC(C)Oc1ccc(-c2nn([C@@H](C)c3oc4ccc(F)cc4c(=O)c3-c3cccc(F)c3)c3ncnc(N)c23)cc1F` [UMBRALISIB], the Activity in experiment [1] was 92.9%; in experiment [2], 99.8%; in experiment [3], 100%; in experiment [4] it was 105%; in experiment [5], 86%; in experiment [6], 98.5%. Also, the Activity in experiment [7] was found to be 100%.
